Patent US20220281848A1, “PYRAZOLE-SUBSTITUTED PYRROLIDINONES AS HERBICIDES” (FMC Corporation, priority 2019, published 2022)

Tests used:
Format in all cases: in vivo
Conditions in all cases: 19 to 21 days
[1] = system: velvetleaf (Abutilon theophrasti); assay: Test C preemergence, velvetleaf
Excerpt: (§1) Seeds of plant species selected from corn (Zea mays), soybean (Glycine max), velvetleaf (Abutilon theophrasti), palmer pigweed (Amaranthus palmeri), waterhemp (common waterhemp, Amaranthus rudis), surinam grass (Brachiaria decumbens), large (Lg) crabgrass (Digitaria sanguinalis), fall panicum (Panicum dichotomiflorum), giant foxtail (Setaria faberi), ragweed (common ragweed, Ambrosia elatior), barnyardgrass (Echinochloa crus-galli), E. Black Nightshade (Solanum ptycanthum), and horseweed (Conyza canadensis), were planted into a silt loam soil and treated preemergence with test chemicals formulated in a non-phytotoxic solvent mixture which included a surfactant.
(§2) Treated plants and controls were maintained in a greenhouse for 19 to 21 days, after which time all species were compared to controls and visually evaluated. Plant response ratings, summarized in Table C, are based on a scale of 0 to 100 where 0 is no effect and 100 is complete control.

[2] = system: palmer pigweed (Amaranthus palmeri); assay: Test C preemergence, palmer pigweed
Excerpt: as §1, §2

[3] = system: waterhemp (common waterhemp, Amaranthus rudis); assay: Test C preemergence, waterhemp
Excerpt: as §1, §2

[4] = system: surinam grass (Brachiaria decumbens); assay: Test C preemergence, surinam grass
Excerpt: as §1, §2

[5] = system: fall panicum (Panicum dichotomiflorum); assay: Test C preemergence, fall panicum
Excerpt: as §1, §2

[6] = system: barnyardgrass (Echinochloa crus-galli); assay: Test C preemergence, barnyardgrass
Excerpt: as §1, §2

[7] = system: E. Black Nightshade (Solanum ptycanthum); assay: Test C preemergence, E. Black Nightshade
Excerpt: as §1, §2

[8] = system: horseweed (Conyza canadensis); assay: Test C preemergence, horseweed
Excerpt: as §1, §2

CN1C[C@H](c2cc(C(F)(F)F)n(C)n2)[C@@H](C(=O)Nc2cccc(F)c2F)C1=O [Compound 13, (3S,4R)—N-(2,3-difluorophenyl)-1-methyl-4-[1-methyl-5-(trifluoromethyl)-1H-pyrazol-3-yl]-2-oxo-3-pyrrolidinecarboxamide]
Plant response rating (0 no effect, 100 complete control) Velvetleaf ([1]; 8 g ai/ha Preemergence): 0 | Plant response rating (0 no effect, 100 complete control) Velvetleaf ([1]; 16 g ai/ha Preemergence): 0 | Plant response rating (0 no effect, 100 complete control) Velvetleaf ([1]; 31 g ai/ha Preemergence): 0 | Plant response rating (0 no effect, 100 complete control) Velvetleaf ([1]; 62 g ai/ha Preemergence): 0 | Plant response rating (0 no effect, 100 complete control) Velvetleaf ([1]; 125 g ai/ha Preemergence): 0 | Plant response rating (0 no effect, 100 complete control) Pigweed, Palmer ([2]; 4 g ai/ha Preemergence): 0 | Plant response rating (0 no effect, 100 complete control) Pigweed, Palmer ([2]; 8 g ai/ha Preemergence): 0 | Plant response rating (0 no effect, 100 complete control) Pigweed, Palmer ([2]; 16 g ai/ha Preemergence): 0 | Plant response rating (0 no effect, 100 complete control) Pigweed, Palmer ([2]; 31 g ai/ha Preemergence): 0 | Plant response rating (0 no effect, 100 complete control) Pigweed, Palmer ([2]; 62 g ai/ha Preemergence): 0 | Plant response rating (0 no effect, 100 complete control) Pigweed, Palmer ([2]; 125 g ai/ha Preemergence): 28 | Plant response rating (0 no effect, 100 complete control) Waterhemp ([3]; 4 g ai/ha Preemergence): 0 | Plant response rating (0 no effect, 100 complete control) Waterhemp ([3]; 8 g ai/ha Preemergence): 0 | Plant response rating (0 no effect, 100 complete control) Waterhemp ([3]; 16 g ai/ha Preemergence): 0 | Plant response rating (0 no effect, 100 complete control) Waterhemp ([3]; 31 g ai/ha Preemergence): 0 | Plant response rating (0 no effect, 100 complete control) Waterhemp ([3]; 62 g ai/ha Preemergence): 20 | Plant response rating (0 no effect, 100 complete control) Waterhemp ([3]; 125 g ai/ha Preemergence): 20 | Plant response rating (0 no effect, 100 complete control) Surinam Grass ([4]; 4 g ai/ha Preemergence): 30 | Plant response rating (0 no effect, 100 complete control) Surinam Grass ([4]; 8 g ai/ha Preemergence): 30 | Plant response rating (0 no effect, 100 complete control) Surinam Grass ([4]; 16 g ai/ha Preemergence): 58 | Plant response rating (0 no effect, 100 complete control) Surinam Grass ([4]; 31 g ai/ha Preemergence): 90 | Plant response rating (0 no effect, 100 complete control) Surinam Grass ([4]; 62 g ai/ha Preemergence): 89 | Plant response rating (0 no effect, 100 complete control) Surinam Grass ([4]; 125 g ai/ha Preemergence): 99 | Plant response rating (0 no effect, 100 complete control) Panicum ([5]; 4 g ai/ha Preemergence): 0 | Plant response rating (0 no effect, 100 complete control) Panicum ([5]; 8 g ai/ha Preemergence): 0 | Plant response rating (0 no effect, 100 complete control) Panicum ([5]; 16 g ai/ha Preemergence): 0 | Plant response rating (0 no effect, 100 complete control) Panicum ([5]; 31 g ai/ha Preemergence): 0 | Plant response rating (0 no effect, 100 complete control) Panicum ([5]; 62 g ai/ha Preemergence): 53 | Plant response rating (0 no effect, 100 complete control) Panicum ([5]; 125 g ai/ha Preemergence): 48 | Plant response rating (0 no effect, 100 complete control) Barnyardgrass ([6]; 4 g ai/ha Preemergence): 0 | Plant response rating (0 no effect, 100 complete control) Barnyardgrass ([6]; 8 g ai/ha Preemergence): 28 | Plant response rating (0 no effect, 100 complete control) Barnyardgrass ([6]; 16 g ai/ha Preemergence): 63 | Plant response rating (0 no effect, 100 complete control) Barnyardgrass ([6]; 31 g ai/ha Preemergence): 68 | Plant response rating (0 no effect, 100 complete control) Barnyardgrass ([6]; 62 g ai/ha Preemergence): 97 | Plant response rating (0 no effect, 100 complete control) Barnyardgrass ([6]; 125 g ai/ha Preemergence): 97 | Plant response rating (0 no effect, 100 complete control) Nightshade ([7]; 4 g ai/ha Preemergence): 0 | Plant response rating (0 no effect, 100 complete control) Nightshade ([7]; 8 g ai/ha Preemergence): 0 | Plant response rating (0 no effect, 100 complete control) Nightshade ([7]; 16 g ai/ha Preemergence): 0 | Plant response rating (0 no effect, 100 complete control) Nightshade ([7]; 31 g ai/ha Preemergence): 0 | Plant response rating (0 no effect, 100 complete control) Nightshade ([7]; 62 g ai/ha Preemergence): 0 | Plant response rating (0 no effect, 100 complete control) Nightshade ([7]; 125 g ai/ha Preemergence): 63 | Plant response rating (0 no effect, 100 complete control) Horseweed ([8]; 4 g ai/ha Preemergence): 0 | Plant response rating (0 no effect, 100 complete control) Horseweed ([8]; 8 g ai/ha Preemergence): 0 | Plant response rating (0 no effect, 100 complete control) Horseweed ([8]; 16 g ai/ha Preemergence): 0 | Plant response rating (0 no effect, 100 complete control) Horseweed ([8]; 31 g ai/ha Preemergence): 30 | Plant response rating (0 no effect, 100 complete control) Horseweed ([8]; 62 g ai/ha Preemergence): 45 | Plant response rating (0 no effect, 100 complete control) Horseweed ([8]; 125 g ai/ha Preemergence): 65
